Key:
[1] = tested on: Grb14 recruitment to the insulin receptor; assay type: cell-based; conditions: co-immunoprecipitation, data not shown
Grb14 RA-PH K252A = target: T1, Grb14 RA-PH K252A (Homo sapiens, UniProt Q14449, K252A); assay: Fluorescence-polarization phosphoinositide binding, Grb14 RA-PH K252A; conditions: Grb14 K252A vs WT
T1 sequence (Q14449 106-356 K252A limits assumed): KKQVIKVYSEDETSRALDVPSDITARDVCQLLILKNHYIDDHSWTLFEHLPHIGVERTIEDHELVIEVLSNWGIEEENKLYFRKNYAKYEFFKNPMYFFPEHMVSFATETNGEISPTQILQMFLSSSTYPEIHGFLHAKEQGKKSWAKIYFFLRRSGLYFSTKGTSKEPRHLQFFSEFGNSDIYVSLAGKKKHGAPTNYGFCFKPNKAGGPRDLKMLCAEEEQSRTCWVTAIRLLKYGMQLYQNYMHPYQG

crystal structure = target: the molecule itself; assay: crystal structure

Molecule: COC[C@H]1OC(=O)c2coc3c2[C@@]1(C)C1=C(C3=O)[C@@H]2CCC(=O)[C@@]2(C)C[C@H]1OC(C)=O [wortmannin]
- effect on recruitment of Grb14 to the insulin receptor [1]: PI-3K activity is not required for Grb14 recruitment to the receptor

Molecule: CCCCCC(=O)O[C@H](COC(=O)CCCCCNC(=O)CCC1=C(C)C2=Cc3ccc(-c4ccc(OC)cc4)n3[B-](F)(F)[N+]2=C1C)COP(=O)(O)O[C@H]1[C@H](O)[C@@H](OP(=O)(O)O)[C@H](OP(=O)(O)O)[C@@H](OP(=O)(O)O)[C@H]1O [345P3, PI(3,4,5)P3]
- decrease in binding affinity relative to wild-type (Grb14 RA-PH K252A): more than three

B1: Grb10 RA-PH (residues 106-357 of human Grb10 isoform c (domain or fragment)
chain: GSHMAAAKQDVKVFSEDGTSKVVEILADMTARDLCQLLVYKSHSVDDNSWTLVEHHPHLGLERCLEDHELVVQVESTMASESKFLFRKNYAKYEFFKNPMNFFPEQMVTWSQQSNGSQTQLLQNFLNSSSSPEIQGFLHVKELGKKSWKKLYVCLRRSGLYCSTKGTSAAPRHLQLLADLEDSNIFSLIAGRKQYNAPTDHGLCIKPNKVRNETKELRLLCAEDEQTRTSWMTAFRLLKYGMLLYQNYRIPQQRKA
- binding result (crystal structure): binds
